According to patent US8993542B2, “Methods of treating viral infections” (priority 2008, dated 2015):
pIC50: −log10 of the molar value. Where two headings read alike, the source gives them in different places.

Assays:
[1] = tested on: CEM T-lymphocytic cells or MAGI-CCR5 cells; assay: Cytotoxicity of two-drug combinations; settings: 10 μM highest test concentration
Procedure: The anti-HIV-1 activity of CMX157 is evaluated in two-drug combination studies with twenty-four different FDA-approved anti-HIV inhibitors. Each two-drug combination is tested three times in CEM T-lymphocytic cells or MAGI-CCR5 cells acutely infected with the laboratory-adapted strain HIV-1IIIB or HIV-1Ba-L, respectively. Viral growth/inhibition is evaluated by measuring virus-induced cytopathic effects (CPE) in CEM cells or by β-galactosidase reporter gene induction in MAGI-CCR5 cells at the experimental endpoint. The cytotoxicity of each two-drug combination is also evaluated in parallel with the antiviral evaluations. The concentrations of CMX157 used in these evaluations are selected in order to test a broad range of concentrations and to provide as complete a dose response curve as possible under the limitations of eight total concentrations. […] The “positive antagonism control” of d4T (stavudine) in combination with RBV was tested in parallel with each of the assays that were performed. Analysis of drug interactions for each of the two-drug combinations is performed using the Prichard and Shipman MacSynergy II three-dimensional model for statistical evaluation of combination assays.

HIV-1 Subtype Isolates = assay: Activity against HIV-1 subtype isolates in PBMCs, RT endpoint; settings: for pIC50: Human immunodeficiency virus 1, PBMC
PBMCs = assay: Cytotoxicity (TC50) in PBMCs; format: cell-based
[2] = Cytotoxicity (TC50) in PBMCs; format: cell-based; settings: PBMCs

SMILES: CCCCCCCCCCCCCCCCOCCCOP(=O)(O)CO[C@H](C)Cn1cnc2c(N)ncnc21 [CMX157, Hexadecyloxypropyl-9-R-[2-(Phosphonomethoxy)Propyl]-Adenine]
- synergistic cytotoxicity [1]: no evidence of synergistic cytotoxicity
- pIC50 (HIV-1 Subtype Isolates; read-out: IC50s against all major HIV subtypes, subtypes A-G, O and HIV-2, Tables 2 and 3): 8.14 to 9.70
- pIC50 (HIV-1 Subtype Isolates; read-out: RT Endpoint IC50, isolate 96USHIPS7, subtype B): 8.32
- pIC50 (HIV-1 Subtype Isolates; read-out: RT Endpoint IC50, isolate ADA, subtype B): 8.97
- pIC50 (HIV-1 Subtype Isolates; read-out: RT Endpoint IC50, isolate BCF01, subtype O): 8.14
- pIC50 (HIV-1 Subtype Isolates; read-out: RT Endpoint IC50, isolate BCF02, subtype O): 8.61
- pIC50 (HIV-1 Subtype Isolates; read-out: RT Endpoint IC50, isolate BCF03, subtype O): 8.28
- pIC50 (HIV-1 Subtype Isolates; read-out: RT Endpoint IC50, isolate BR/92/014, subtype B): 8.80
- pIC50 (HIV-1 Subtype Isolates; read-out: RT Endpoint IC50, isolate BR/92/025, subtype C): 8.46
- pIC50 (HIV-1 Subtype Isolates; read-out: RT Endpoint IC50, isolate BR/93/019, subtype F): 8.19
- pIC50 (HIV-1 Subtype Isolates; read-out: RT Endpoint IC50, isolate BR/93/020, subtype F): 9.14
- pIC50 (HIV-1 Subtype Isolates; read-out: RT Endpoint IC50, isolate BR/93/029, subtype F): 8.99
- pIC50 (HIV-1 Subtype Isolates; read-out: RT Endpoint IC50, isolate CMU06, subtype E): 8.99
- pIC50 (HIV-1 Subtype Isolates; read-out: RT Endpoint IC50, isolate CMU08, subtype E): 8.55
- pIC50 (HIV-1 Subtype Isolates; read-out: RT Endpoint IC50, isolate G3, subtype G): 8.57
- pIC50 (HIV-1 Subtype Isolates; read-out: RT Endpoint IC50, isolate IN/93/101, subtype C): 9.28
- pIC50 (HIV-1 Subtype Isolates; read-out: RT Endpoint IC50, isolate JR-CSF, subtype B): 9.17
- pIC50 (HIV-1 Subtype Isolates; read-out: RT Endpoint IC50, isolate JV1083, subtype G): 8.63
- pIC50 (HIV-1 Subtype Isolates; read-out: RT Endpoint IC50, isolate MW/93/959, subtype C): 8.35
- pIC50 (HIV-1 Subtype Isolates; read-out: RT Endpoint IC50, isolate RU132, subtype G): 8.79
- pIC50 (HIV-1 Subtype Isolates; read-out: RT Endpoint IC50, isolate RW/92/009, subtype A): 8.76
- pIC50 (HIV-1 Subtype Isolates; read-out: RT Endpoint IC50, isolate TH/92/026, subtype B): 9.36
- pIC50 (HIV-1 Subtype Isolates; read-out: RT Endpoint IC50, isolate TH/93/073, subtype E): 8.53
- pIC50 (HIV-1 Subtype Isolates; read-out: RT Endpoint IC50, isolate UG/92/001, subtype D): 8.29
- pIC50 (HIV-1 Subtype Isolates; read-out: RT Endpoint IC50, isolate UG/92/024, subtype D): 9.52
- pIC50 (HIV-1 Subtype Isolates; read-out: RT Endpoint IC50, isolate UG/92/029, subtype A): 8.23
- pIC50 (HIV-1 Subtype Isolates; read-out: RT Endpoint IC50, isolate UG/92/037, subtype A): 8.64
- pIC50 (HIV-1 Subtype Isolates; read-out: RT Endpoint IC50, isolate UG/92/046, subtype D): 9.02
- TI (TC50/IC50) (HIV-1 Subtype Isolates; isolate 96USHIPS7, subtype B): >208
- TI (TC50/IC50) (HIV-1 Subtype Isolates; isolate ADA, subtype B): >925
- TI (TC50/IC50) (HIV-1 Subtype Isolates; isolate BCF01, subtype O): >139
- TI (TC50/IC50) (HIV-1 Subtype Isolates; isolate BCF02, subtype O): >405
- TI (TC50/IC50) (HIV-1 Subtype Isolates; isolate BCF03, subtype O): >189
- TI (TC50/IC50) (HIV-1 Subtype Isolates; isolate BR/92/014, subtype B): >633
- TI (TC50/IC50) (HIV-1 Subtype Isolates; isolate BR/92/025, subtype C): >291
- TI (TC50/IC50) (HIV-1 Subtype Isolates; isolate BR/93/019, subtype F): >156
- TI (TC50/IC50) (HIV-1 Subtype Isolates; isolate BR/93/020, subtype F): >1,362
- TI (TC50/IC50) (HIV-1 Subtype Isolates; isolate BR/93/029, subtype F): >972
- TI (TC50/IC50) (HIV-1 Subtype Isolates; isolate CMU06, subtype E): >970
- TI (TC50/IC50) (HIV-1 Subtype Isolates; isolate CMU08, subtype E): >356
- TI (TC50/IC50) (HIV-1 Subtype Isolates; isolate G3, subtype G): >373
- TI (TC50/IC50) (HIV-1 Subtype Isolates; isolate IN/93/101, subtype C): >1,892
- TI (TC50/IC50) (HIV-1 Subtype Isolates; isolate JR-CSF, subtype B): >1,480
- TI (TC50/IC50) (HIV-1 Subtype Isolates; isolate JV1083, subtype G): >431
- TI (TC50/IC50) (HIV-1 Subtype Isolates; isolate MW/93/959, subtype C): >222
- TI (TC50/IC50) (HIV-1 Subtype Isolates; isolate RU132, subtype G): >615
- TI (TC50/IC50) (HIV-1 Subtype Isolates; isolate RW/92/009, subtype A): >571
- TI (TC50/IC50) (HIV-1 Subtype Isolates; isolate TH/92/026, subtype B): >2,278
- TI (TC50/IC50) (HIV-1 Subtype Isolates; isolate TH/93/073, subtype E): >339
- TI (TC50/IC50) (HIV-1 Subtype Isolates; isolate UG/92/001, subtype D): >194
- TI (TC50/IC50) (HIV-1 Subtype Isolates; isolate UG/92/024, subtype D): >3,346
- TI (TC50/IC50) (HIV-1 Subtype Isolates; isolate UG/92/029, subtype A): >171
- TI (TC50/IC50) (HIV-1 Subtype Isolates; isolate UG/92/037, subtype A): >435
- TI (TC50/IC50) (HIV-1 Subtype Isolates; isolate UG/92/046, subtype D): >1,039
- CC50 (PBMCs; HIV-2 isolate CBL-20): > 1000 nM
- CC50 (PBMCs; HIV-2 isolate CDC310342): > 1000 nM
- CC50 (PBMCs; isolate 96USHIPS7, subtype B, read-out: TC 50 (the source's name)): > 1000 nM
- CC50 (PBMCs; isolate BCF01, subtype O, read-out: TC 50 (the source's name)): > 1000 nM
- CC50 (PBMCs; isolate BCF02, subtype O, read-out: TC 50 (the source's name)): > 1000 nM
- CC50 (PBMCs; isolate BCF03, subtype O, read-out: TC 50 (the source's name)): > 1000 nM
- CC50 (PBMCs; isolate BR/92/014, subtype B, read-out: TC 50 (the source's name)): > 1000 nM
- CC50 (PBMCs; isolate BR/92/025, subtype C, read-out: TC 50 (the source's name)): > 1000 nM
- CC50 (PBMCs; isolate BR/93/019, subtype F, read-out: TC 50 (the source's name)): > 1000 nM
- CC50 (PBMCs; isolate BR/93/020, subtype F, read-out: TC 50 (the source's name)): > 1000 nM
- CC50 (PBMCs; isolate BR/93/029, subtype F, read-out: TC 50 (the source's name)): > 1000 nM
- CC50 (PBMCs; isolate CMU06, subtype E, read-out: TC 50 (the source's name)): > 1000 nM
- CC50 (PBMCs; isolate CMU08, subtype E, read-out: TC 50 (the source's name)): > 1000 nM
- CC50 (PBMCs; isolate G3, subtype G, read-out: TC 50 (the source's name)): > 1000 nM
- CC50 (PBMCs; isolate IN/93/101, subtype C, read-out: TC 50 (the source's name)): > 1000 nM
- CC50 (PBMCs; isolate JR-CSF, subtype B, read-out: TC 50 (the source's name)): > 1000 nM
- CC50 (PBMCs; isolate JV1083, subtype G, read-out: TC 50 (the source's name)): > 1000 nM
- CC50 (PBMCs; isolate MW/93/959, subtype C, read-out: TC 50 (the source's name)): > 1000 nM
- CC50 (PBMCs; isolate RU132, subtype G, read-out: TC 50 (the source's name)): > 1000 nM
- CC50 (PBMCs; isolate RW/92/009, subtype A, read-out: TC 50 (the source's name)): > 1000 nM
- CC50 (PBMCs; isolate TH/92/026, subtype B, read-out: TC 50 (the source's name)): > 1000 nM
- CC50 (PBMCs; isolate TH/93/073, subtype E, read-out: TC 50 (the source's name)): > 1000 nM
- CC50 (PBMCs; isolate UG/92/001, subtype D, read-out: TC 50 (the source's name)): > 1000 nM
- CC50 (PBMCs; isolate UG/92/024, subtype D, read-out: TC 50 (the source's name)): > 1000 nM
- CC50 (PBMCs; isolate UG/92/029, subtype A, read-out: TC 50 (the source's name)): > 1000 nM
- CC50 (PBMCs; isolate UG/92/037, subtype A, read-out: TC 50 (the source's name)): > 1000 nM
- CC50 (PBMCs; isolate UG/92/046, subtype D, read-out: TC 50 (the source's name)): > 1000 nM
- CC50 ([2]; HIV-2 isolate CDC310319): > 1000 nM
- CC50 ([2]; human, isolate ADA, subtype B, read-out: TC 50 (the source's name)): > 1000 nM
